Measurements from patent US20160168616A1, “PRODUCTION OF NONTOXIC RAW MATERIALS AND FINISHED PRODUCTS TESTED BY MEANS OF AN INNOVATIVE PROBIOTIC BACTERIA BASED METHOD FOR DETERMINING TOXICITY TOWARDS PROBIOTIC BACTERIA” (PROBIOTICAL S.P.A., priority 2013, published 2016).

Test system: probiotic bacterial strains indicated in Table 1 with the numbers 17, 22, 41, 60, 74, 98, 121, 145, 174 and 182
Assay: toxicity test of raw materials with the method of the invention (plate count, % mortality)
Assay type: cell-based
Conditions: raw material test; strains 17, 22, 41, 60, 74, 98, 121, 145, 174 and 182 of Table 1 as toxicity markers
Experimental: The method comprises a step in which the probiotic bacterial strain (toxicity marker) is placed in contact with a raw material to be tested using a quantity of raw material equal to that normally used in the formulation.
In practical terms, a first sample is prepared which comprises the probiotic bacterial strain (toxicity marker), the optimal culture substrate for said probiotic bacterial strain and the raw material to be tested.
Then a second sample (internal reference) is prepared which comprises the same probiotic bacterial strain used in said first sample (toxicity marker) and only the optimal culture substrate (without the raw material to be tested). […]
The ratio between the bacterial count (number of cells counted on the plate) of said first sample and the bacterial count (number of cells on the plate) of said second sample provides a number less than 1, which, if expressed as a percentage, provides a count of the bacteria which survived in contact with the raw material and, therefore, also expresses the % mortality induced by said raw material in the probiotic bacterial strains used as a marker. […]
8.11 incubate the plates upside down at 37±1° C. for 72 h under anaerobic conditions (Gas-Pak+anaerobic kit). […] The result will be expressed as CFU, i.e. Colony Forming Units. […]

## O=C(O)CC(O)(CC(=O)O)C(=O)O [Citric Acid]
  mortality found: 2%
